Experimental data reported in US9833520B2, “Labeled, non-peptidic, multivalent integrin antagonist compounds; methods for synthesis and uses thereof” (The Methodist Hospital Research Institute, priority 2011, dated 2017).
Like-named read-outs stand apart in the source and are kept apart here.

How the values were obtained:
purified human αvβ3 = biological target: T1, purified human αvβ3 (Homo sapiens, UniProt P05106+P06756); assay: ELISA: competitive inhibition of biotinylated vitronectin binding to immobilized purified integrin αvβ3; settings: for in vitro measured IC50 increase from IA-monomer: compared to IA-monomer
T1 construct: purchased Chemicon International, Temecula, Calif., USA
Procedure: In vitro Binding Assay. […] Purified integrin αvβ3 protein (Chemicon International, Temecula, Calif., USA) was applied to 96-well polystyrene microtiter plates at 0.1 μg/well. After overnight incubation at 4° C., the plates were washed, and then blocked with milk solution (KPL, Inc. Gaithersburg, Md., USA) at room temperature for 2 hr. The blocking buffer was removed, and the plates were inoculated in quadruplicate with bivalent IAs with a typical starting concentration of 125 nM. Serial dilutions were prepared in the 96-well plates using multichannel pipettes. Biotinylated vitronectin solution (0.1 μg/well) was added to each well as a standard competitor. The plates were incubated at room temperature for 3 h, washed, and the bound vitronectin was detected using NeutrAvidin-HRP conjugate at 0.01 μg/well (Pierce, Rockford, Ill., USA) and LumiGlo® chemiluminescent substrate system (KPL, Inc.). The luminescence was read using a FLUOstar™ OPTIMA Microplate Reader (Durham, N.C., USA). […] (Peptides International, Inc., Louisville, Ky., USA) was also tested using the same method as described above.
Briefly, purified integrin αvβ3 protein (Chemicon International, Temecula, Calif., USA) was applied to 96-well polystyrene microtiter plates for overnight incubation at 4° C. The plates were washed and then blocked with milk solution (KPL, Inc., Gaithersburg, Md., USA) and the plates were inoculated in quadruplicate with multivalent IAs at different concentrations. Biotinylated vitronectin solution was added to each well as a standard competitor. The plates were incubated at room temperature, washed, and the bound vitronectin detected using NeutrAvidin-HRP® conjugate (Pierce, Rockford, Ill., USA) and LumiGlo® chemiluminescent substrate system (KPL, Inc., Gaithersburg, Md., USA). The luminescence was read using a FLUOstar® OPTIMA Microplate Reader (Durham, N.C., USA).
In vitro Binding Affinity Assay. Purified integrin αvβ3 protein (Chemicon International, Temecula, Calif., USA) was applied to 96-well polystyrene microtiter plates at 1 μg/well. After overnight incubation at 4° C., the plates were washed and then blocked with milk solution (KPL, Inc., Gaithersburg, Md., USA) at room temperature for 2 hr. The blocking buffer was removed, and the plates were inoculated in quadruplicate with bivalent IAs with a typical starting concentration of 125 nM. Serial dilutions were prepared in the 96-well plates using multichannel pipettes. Biotinylated vitronectin solution (0.1 μg/well) was added to each well as a standard competitor.
The plates were incubated at room temperature for 3 hr, washed, and the bound vitronectin was detected using NeutrAvidin-HRP conjugate at 0.01 μg/well (Pierce, Rockford, Ill., USA) and LumiGlo® chemiluminescent substrate system (KPL, Inc.). The luminescence was read using a FLUOstar OPTIMA Microplate Reader (Durham, N.C., USA). […] It measured competitive binding of the integrin antagonist and biotinylated human vitronectin for the immobilized receptor αvβ3.

HUVECs = assay: In vitro cytotoxicity (MTT) assay, HUVECs; assay type: cell-based, human; settings: 1 μg/mL to 100 μg/mL, 24 hr
Procedure: For cell cytotoxicity assay, the cells were then seeded into 96-well flat-bottomed tissue-culture plates at 1×10^4 cells/well and incubated for 24 hr in humidified atmosphere of 5% (vol./vol.) CO2 at 37° C. in the presence of each compound. The multivalent compound (monomer, dimer, and trimer) sample solutions were diluted with culture medium (1% FBS added) to obtain concentrations in the range of 0.1-100 μg/mL for each compound. The cytotoxic effects of monomer, dimer and trimer compounds were evaluated by adding 100 μL of each sample in 100 μL culture medium to each well. After 24-hrs' incubation, cell viability was evaluated by mitochondrial conversion of 3-(4,5-dimethylthiazol-2-yl)-2,5-diphenyl tetrazolium bromide (MTT assay) (Allison et al., 1985).

[1] = Example 1 bivalent IA study, FIG. 4, read-out: IC50 of vitronectin binding to αvβ3 (ELISA)
[2] = monomer/dimer/trimer study, FIG. 28, Table 5, read-out: IC50 (nM) ELISA

| SMILES | IC50 (purified human αvβ3; [1]) | IC50 (purified human αvβ3; Example 2, PEG-linked ligands, averages of at least three determinations, read-out: In vitro EL1SA IC50) | IC50 (purified human αvβ3; [2]) | integrin αvβ3 binding affinity compared to monomer (purified human αvβ3) | in vitro measured IC50 increase from IA-monomer (purified human αvβ3) | improvement in receptor affinity (IC50) over c-[RGDfV] (purified human αvβ3; compared to c-[RGDfV]) | increase in IC50 from the dimer to trimer (purified human αvβ3; compared to IA dimer) | cytotoxicity on HUVEC cells (HUVECs) |
| --- | --- | --- | --- | --- | --- | --- | --- | --- |
| NCCS(=O)(=O)N[C@@H](CNC(=O)c1ccc(OCCNC2=NCCCN2)cc1)C(=O)O [IA, 4-[2-(3,4,5,6-tetrahydropyrimidine-2-ylamino)ethyloxy]benzoyl-2-(S)-aminoethylsulfonyl-amino-β-alanine] | 22.3 ± 4.51 nM | 22.3 nM | 11 nM | – | – | – | – | – |
| NC(CCCCCC(=O)NCCS(=O)(=O)N[C@@H](CNC(=O)c1ccc(OCCNC2=NCCCN2)cc1)C(=O)O)C(=O)NCCS(=O)(=O)N[C@@H](CNC(=O)c1ccc(OCCNC2=NCCCN2)cc1)C(=O)O (stereo partly drawn) [bivalent IA] | 0.4 ± 0.11 nM | – | 0.44 nM | significantly higher integrin avb3-binding affinity and specificity than IA monomer | 28 fold | 10 fold | – | – |
| O=C(NCCS(=O)(=O)N[C@@H](CNC(=O)c1ccc(OCCNC2=NCCCN2)cc1)C(=O)O)OCCN(CCOC(=O)NCCS(=O)(=O)N[C@@H](CNC(=O)c1ccc(OCCNC2=NCCCN2)cc1)C(=O)O)CCOC(=O)NCCS(=O)(=O)N[C@@H](CNC(=O)c1ccc(OCCNC2=NCCCN2)cc1)C(=O)O [IA trimer] | – | – | 0.22 nM | – | 56 fold | – | 2 fold | increased cytotoxicity over the IA-monomer and dimer |
